“And” between values parts separate entries of the source, which are not always exact repeats. Equal entries are not always repeated. “Also recorded” adds a separate entry of the source. Where two headings read alike, the source gives them in different places.
Tests used:
[1] = biological target: T1, central benzodiazepine receptor type I (Rattus norvegicus, UniProt P18508+P62813); test: [3H]-zolpidem binding to rat synaptosomal membranes; parameters: species or system rat (Wistar); conditions: read-out: Ki, [3H]-ZOLP binding
T1 construct: washed crude synaptosomal membranes from rat cerebral cortex; from tissue; host or cells: Wistar rat cerebral cortex, striatum, cerebellum (crude synaptosomal membranes)
T1 sequence (P62813 28-455): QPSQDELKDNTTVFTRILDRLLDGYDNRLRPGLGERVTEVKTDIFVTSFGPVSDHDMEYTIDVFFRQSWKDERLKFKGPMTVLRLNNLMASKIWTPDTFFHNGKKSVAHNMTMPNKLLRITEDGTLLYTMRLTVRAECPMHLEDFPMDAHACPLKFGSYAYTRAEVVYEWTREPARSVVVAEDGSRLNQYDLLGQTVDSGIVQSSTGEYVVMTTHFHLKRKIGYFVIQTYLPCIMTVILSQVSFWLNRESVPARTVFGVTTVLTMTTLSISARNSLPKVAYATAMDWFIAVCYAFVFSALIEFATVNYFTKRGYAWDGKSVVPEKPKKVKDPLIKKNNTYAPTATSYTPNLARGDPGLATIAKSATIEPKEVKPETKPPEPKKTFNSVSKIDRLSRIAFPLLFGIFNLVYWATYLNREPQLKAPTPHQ
T1 sequence (P18508 39-466): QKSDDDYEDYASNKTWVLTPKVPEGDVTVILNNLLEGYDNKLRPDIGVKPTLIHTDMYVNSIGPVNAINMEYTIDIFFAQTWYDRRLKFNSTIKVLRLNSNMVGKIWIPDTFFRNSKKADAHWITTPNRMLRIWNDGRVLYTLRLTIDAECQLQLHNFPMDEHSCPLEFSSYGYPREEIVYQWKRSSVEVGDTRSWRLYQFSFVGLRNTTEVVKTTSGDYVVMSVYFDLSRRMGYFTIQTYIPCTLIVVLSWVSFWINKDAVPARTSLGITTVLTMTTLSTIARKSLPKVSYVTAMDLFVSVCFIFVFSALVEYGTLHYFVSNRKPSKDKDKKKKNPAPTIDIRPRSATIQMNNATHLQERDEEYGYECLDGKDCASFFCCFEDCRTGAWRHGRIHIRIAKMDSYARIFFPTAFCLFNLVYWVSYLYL
T1 sequence (P63138 25-474 partner limits assumed): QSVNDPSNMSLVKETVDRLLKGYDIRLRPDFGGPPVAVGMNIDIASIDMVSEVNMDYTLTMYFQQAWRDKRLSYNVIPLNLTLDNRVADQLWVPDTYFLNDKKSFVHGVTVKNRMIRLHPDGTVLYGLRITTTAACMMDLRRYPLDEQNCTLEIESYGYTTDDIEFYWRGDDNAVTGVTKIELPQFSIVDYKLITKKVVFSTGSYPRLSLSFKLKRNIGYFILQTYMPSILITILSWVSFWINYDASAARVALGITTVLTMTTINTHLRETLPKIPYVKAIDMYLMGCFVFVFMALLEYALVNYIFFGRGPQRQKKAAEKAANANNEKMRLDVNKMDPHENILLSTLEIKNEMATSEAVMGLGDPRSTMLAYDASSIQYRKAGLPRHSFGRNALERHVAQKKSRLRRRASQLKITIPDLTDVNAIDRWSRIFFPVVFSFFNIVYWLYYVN
Method: (§1) Adult male Wistar rats weighing 250 g were used for biochemical experiments. Adult male Swiss male weighing 25-30 g were used for pharmacological assays except for inhibitory avoidance and tail flick tests were done in rats. Animals were housed in a controlled environment, with free access to food and water and maintained on a 12 h/12 h day/night cycle.
(§2) Displacement curves were performed using [^3 ]-FNZ or [^3 H]-zolpidem ([^3 H]-ZOLP) as radioligands in washed crude synaptosomal membranes from rat cerebral cortex, cerebellum, hippocampus, striatum or spinal cord. Membrane preparations were carried out according to Medina et al. (1990). Briefly, brains were rapidly dissected out on ice and the different structures were homogenized in 10 volumes of 0.32 M sucrose and centrifuged at 900×g for 10 min. The resulting supernatant was centrifuged at 100,000×g for 30 min and the pellet washed twice in 25 mM Tris HCl buffer pH 7.4 at 100,000×g for 30 min, and stored at -20° C. until used.
For [^3 H]-ZOLP (50.8 Ci/mmol, NEN) binding assays we used the technique of Arbilla et al. (1986), slightly modified as follows: displacement curves were done with 1 nM of the radioligand and 10 μM zolpidem to determine the nonspecific binding (<15%). The incubation of the samples (0.4 mg protein in 1 ml of 50 mM Tris HCl buffer, pH 7.4, 120 mM NaCl, 5 mM KCl) was carried out at 4' C. during 30 min. […]

[2] = tested on: serotonin (5-HTlλ) receptors; test: [3H]-8-OH-DPAT binding; conditions: 20 μM; data not shown
Method: Additional binding studies were performed as described elsewhere: [^3 ]-prazosin binding for α1 adrenergic receptors (Medina et al., 1984), [^3 H]-dihidroalprenolol binding for β adrenergic receptors (Medina et al. 1984), [^3 H]-quinuclinidyl benzylate binding for muscarinic cholinergic receptors (Jerusalinksy et al., 1983), [^3 H]-muscimol binding for GABAλ receptors (Medina et al., 1983) and [^3 H]-8-Hydroxydipropylaminotetralin ([^3 H]--OH--DPAT) binding for serotonin (5-HTlλ) receptors (Nenonene et al., 1984).

mice [3] = test: Locomotor activity test in mice; assay type: in vivo, male Swiss mice; conditions: i.p.
Method: as §1
An Opto-varimex® apparatus was used according to Viola et al. (1994). The apparatus discriminates between total and ambulatory activities. An increase in the number of transitions through the beams reflects augmented locomotor activity. In this and all following tests in mice, animals were i.p. injected with the vehicle, or with DNF 20 min before the beginning of the tests. In each session, control mice were tested in parallel with those animals receiving drug treatment.

mice [4] = test: Horizontal wire test in mice; assay type: in vivo, male Swiss mice
Method: as §1
This test was carried out as previously described (Viola et al., 1994; Wolfman et al., 1994; Viola et al., 1995). The test took place after two trials, performed at 5 min intervals. A myorelaxant drug will impair mice to grasp the wire (Bonetti et al., 1982). The effect of DNF )1 mg/kg) on DZ-induced myorelaxation was also determined.

mice [5] = test: Pentylenetetrazole (PTZ)-induced seizures; assay type: in vivo
Method: The effects of DNF on pentylenetetrazole (PTZ)--induced convulsions were evaluated according to Medina et al., (1990) with slight modifications. PTZ (200 mg/kg) was administered i.p. to mice 15 min after injection of drug or vehicle. The number of mice presenting clonic convulsions was determined.
Data are expressed as the percentage of mice presenting clonic or tonic-clonic seizures. ^3 number of animals per group.

rats = test: Inhibitory avoidance test in rats; assay type: in vivo, rat
Method: This test was performed according to Izquierdo et al., (1990). The training apparatus was a 50×25×25 cm acrylic box with a frontal glass panel and a floor made of parallel 1 mm caliber bronze bars spaced […] apart. A 5 cm high, 7 cm wide formica platform was placed on the loft extreme of the box. Rats were placed on the platform and their latency to step-down placing their four paws on the grid was measured. On stepping-down they received a 0.35 mA, 2 s scrambled footshock and were withdrawn from the box (training session). The test session was carried out 20 h later and was similar to the training session in all respects except that the footshock was omitted. Test step-down latency (to a ceiling of 180 s) was taken as a measure of retention of inhibitory avoidance (Izquierdo et al., 1990).

[6] = biological target: central benzodiazepine receptor (Rattus norvegicus, UniProt P18508+P62813); test: [3H]-FNZ binding to crude synaptosomal membranes from rat CNS regions; parameters: washed crude synaptosomal membranes from rat cerebral cortex; from tissue; host or cells: Wistar rat cerebral cortex, cerebellum, hippocampus, striatum, spinal cord (crude synaptosomal membranes); species or system rat (Wistar); conditions: Ki, [3H]-FNZ binding, rat cerebellum
Chain of central benzodiazepine receptor (P62813 28-455): as the sequence (P62813 28-455) above
Chain of central benzodiazepine receptor (P18508 39-466): as the sequence (P18508 39-466) above
Chain of central benzodiazepine receptor (P63138 26-474 partner): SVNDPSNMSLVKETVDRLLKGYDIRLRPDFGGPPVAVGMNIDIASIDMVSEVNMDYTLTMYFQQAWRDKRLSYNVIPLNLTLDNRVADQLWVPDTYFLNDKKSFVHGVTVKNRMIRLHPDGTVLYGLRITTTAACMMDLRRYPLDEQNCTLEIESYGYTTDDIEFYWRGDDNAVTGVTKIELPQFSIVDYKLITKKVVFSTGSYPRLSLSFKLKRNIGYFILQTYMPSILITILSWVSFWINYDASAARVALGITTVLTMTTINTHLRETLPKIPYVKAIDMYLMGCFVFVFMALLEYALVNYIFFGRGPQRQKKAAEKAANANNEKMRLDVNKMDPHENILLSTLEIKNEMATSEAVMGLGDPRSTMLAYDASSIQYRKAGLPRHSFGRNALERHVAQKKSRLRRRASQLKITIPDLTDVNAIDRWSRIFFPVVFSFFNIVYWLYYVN
Method: as §1
as §2, with “The resulting supernatant was centrifuged at 100,000×g for 30 min and the pellet washed twice in 25 mM Tris HCl buffer pH 7.4 at 100,000×g for 30 min, and stored at -20° C. until used.” left out
For [^3 H]-FNZ (84 Ci/mmol, NEN) displacement curves, different concentrations of DNF (0.3 nM to 1 μM) were added to 0.3 mg membrane protein suspended in 1 ml of 25 mM Tris HCl buffer in presence of 0.6 nM of the radioligand. […] Nonspecific binding (<5%) was determined in parallel incubations with 10 μM FNZ (Hoffmann-La Roche). […] The assays were determined by filtration under vacuum through Whatman GF/A glass fiber filters, and two washes with 3 ml each of incubation medium. Filters were dried and counted after the addition of 5 ml 2,5-diphenyl-oxazole (PPO)-xylene as scintillation fluid.

Structure (SMILES): O=c1cc(-c2cccc([N+](=O)[O-])c2)oc2ccc([N+](=O)[O-])cc12 [Compound (II), 6,3'-dinitroflavone]
- Ki ([1]; rat cerebellum, n=3): 17 ± 1.5 nM
- Ki ([1]; rat cerebral cortex, n=5): 17.2 ± 3.7 nM
- displacement of [3H]-8-HO-DPAT binding [2]: did not displace
- spontaneous ambulatory locomotion (mice [3]; 0.3 mg/kg, p<0.05): slight increase
- reduction in the locomotion (mice [3]; 10 mg/kg, p<0.01): 55%
- spontaneous ambulatory locomotion (mice [3]; up to 3 mg/kg): no effect on spontaneous ambulatory locomotion
- effect on DZ-induced myorelaxation (mice [4]; mice, DNF plus DZ (1 mg/kg), listed as DNF): counteracted; also recorded: able to reverse the myorelaxant effect of the full agonist DZ; also recorded: prevents the muscle relaxation effect of a full benzodiazepine receptor agonist
- animals showing myorelaxant effect, DNF plus DZ (mice [4]; mice, i.p., DNF plus DZ (1 mg/kg), p<0.001): 2 animals out of 15
- percentage of mice grasping the wire (mice [4]; mice, i.p., up to 10 mg/kg): did not affect the percentage of mice grasping
- myorelaxant effects (mice [4]; up to 10 mg/kg): did not evidence anticonvulsant, myorelaxant
- % of convulsing mice (mice [5]; DNF 0.03 mg/kg, n=6): 100%
- % of convulsing mice (mice [5]; DNF 0.1 mg/kg, n=12): 75%
- % of convulsing mice (mice [5]; DNF 0.3 mg/kg, n=15): 80%
- % of convulsing mice (mice [5]; DNF 1.0 mg/kg, n=13): 92.4%
- % of convulsing mice (mice [5]; DNF 3.0 mg/kg, n=5): 100%
- % of convulsing mice (mice [5]; DNF 6.0 mg/kg, n=7): 100%
- prevention of PTZ-induced seizures (mice [5]; mice, 30 μg/kg-6 mg/kg, PTZ 200 mg/kg): did not prevent the seizures
- anticonvulsant effects (mice [5]; up to 10 mg/kg): did not evidence anticonvulsant
- test session performance of inhibitory avoidance (rats; rats, i.p., 100 μg/kg, pre or posttraining): no effect
- amnesic effects (rats; up to 10 mg/kg as worded): did not evidence anticonvulsant, myorelaxant, amnesic
- Ki [6]: 17 nM and 17.2 nM

Source: patent publication US6080780A, “Use of nitroflavonoids for the treatment of anxiety” (University of Strathclyde, priority 1995, dated 2000)
